# Measurements reported in patent publication USRE48687E1, “Pyridinylaminopyrimidine derivatives, preparation process and use thereof” (Shanghai Allist Pharmaceuticals Co., Ltd., priority 2014, dated 2021).
# Key:
# Format in all cases: cell-based
# Conditions in all cases: SRB staining
# [1] = system: human lung cancer cell (H1975, EGFR L858R/T790M resistant mutation); test: Proliferation inhibition (SRB) on human lung cancer cell H1975
# Text: (§1) The pharmacodynamic action of the compound of the present invention in terms of inhibiting the proliferation of cancer cells may be assayed by conventional methods. […] Inhibition ratio (%)=[(blank control OD−inhibitor OD)/blank control OD]×100%
# (§2) Blank control OD: the OD value of the well of normally growed cells without the action of a drug.
# (§3) Inhibitor OD: the OD value of the well of cells with the action of the added compounds to be screened.
# (§4) The median inhibitory concentration (IC50) value is obtained by the software GraphPad Prism 5.0 by the 4-parameter logistic curve fit calculation. Each experiment is repeated three times, and the average IC50 value for three experiments is used as the final index for the inhibitory ability.
# (§5) Cells in the logarithmic phase were inoculated to 96-well culture plates (cell density: 5000/well, cell suspension: 180 μl/well), and cultured at 37° C. under 5% CO2 for 24 hours. After the culturing, the cells adhered to the well walls. Each of compounds was dissolved in DMSO in advance to formulate a […] stock solution. Upon testing, the stock solution was diluted with complete medium to 10 times the target concentration in another 96-cell plate. And then the compound was added at 20 μl/cell in the 96-well plate in which the cells were inoculated, i.e. the target concentration could be reached. The well for each concentration was triplicated, and the blank control was established. Cells continued to be cultured at 37° C. under 5% CO2 for 72 hours. After the termination of culturing, 50 μl pre-cooled (4° C.) 50% trichloroacetic acid, i.e., TCA was added to each of wells (final concentration=10%), and was placed at 4° C. for 1 hour to fix the cells. The resulting matter was washed with purified water for at least 5 times, and dried naturally in air or at 60° C. in an oven. 4 mg/ml Sulforhodamine B (SRB) solution prepared by 1% glacial acetic acid/purified water was added at 100 μl/well to each well so as to stain for 1 hour at room temperature. The supernatant was discarded. The residue was washed with 1% acetic acid for at least 5 times to remove the non-specifically binding, and dried for use. To each well was added 150 μl of 10 mM Tris-HCl solution for dissolving the contents therein.
# [2] = system: human lung cancer cell (HCC827, EGFR Exon 19 deletion activating mutation); test: Proliferation inhibition (SRB) on human lung cancer cell HCC827
# Text: as §1, §2, §3, §4, §5
# [3] = system: human skin cancer cell (A431, wild-type EGFR); test: Proliferation inhibition (SRB) on human skin cancer cell A431
# Text: as §1, §2, §3, §4, §5
SMILES,"IC50 ([1]; Homo sapiens, NCI-H1975, 72 h)","IC50 ([2]; Homo sapiens, HCC827, 72 h)","IC50 ([3]; Homo sapiens, A-431, 72 h)",further results
"C=CC(=O)Nc1cc(Nc2ncc(Cl)c(-c3cnn(C)c3)n2)c(OC(C)C)nc1N(C)CCN(C)C [Example 21 compound, N-{2-{[2-(dimethylamino)ethyl](methyl)amino}-6-isopropyloxy-5-{[5-chloro-4-(1-methyl-1H-pyrazol-4-yl)pyrimidin-2-yl]amino}pyridin-3-yl}acrylamide]",18.6 nM,142 nM,370 nM,
"C=CC(=O)Nc1cc(Nc2ncc(Cl)c(-c3cnc(N)nc3)n2)c(OC(C)C)nc1N(C)CCN(C)C [Example 23 compound, N-{2-{[2-(dimethylamino)ethyl](methyl)amino}-6-isopropyloxy-5-{[5-chloro-2′-amino-(4,5′-bipyrimidine)-2-yl]amino}pyridin-3-yl}acrylamide]",30.7 nM,3.08 nM,1140 nM,
"C=CC(=O)Nc1cc(Nc2ncc(Cl)c(-c3cnc4c(ccn4C)c3)n2)c(OC(C)C)nc1N(C)CCN(C)C [Example 20 compound, N-{2-{[2-(dimethylamino)ethyl](methyl)amino}-6-isopropyloxy-5-{[5-chloro-4-(1-methyl-1H-pyrrolo[2,3-b]pyridin-5-yl)pyrimidin-2-yl]amino}pyridin-3-yl}acrylamide]",42.4 nM,8.97 nM,801 nM,
"C=CC(=O)Nc1cc(Nc2ncc(Cl)c(-c3cn(C)c4cc(F)c(F)cc34)n2)c(OC(C)C)nc1N(C)CCN(C)C [Example 17 compound, N-{2-{[2-(dimethylamino)ethyl](methyl)amino}-6-isopropyloxy-5-{5-chloro-[4-(1-methyl-5,6-difluoro-1H-indol-3-yl)pyrimidin-2-yl]amino}pyridin-3-yl}acrylamide methanesulfonate]",,,,"IC50 ([1]; 72 hours, methanesulfonate): 7.63 nM; IC50 ([2]; 72 hours, methanesulfonate): 5.56 nM"
"C=CC(=O)Nc1cc(Nc2ncc(Cl)c(-c3cn(C)c4ccccc34)n2)c(OC(C)C)nc1N(C)CCN(C)C [Example 1 compound, N-{2-{[2-(dimethylamino)ethyl](methyl)amino}-6-isopropyloxy-5-{5-chloro-[4-(1-methyl-1H-indol-3-yl)pyrimidin-2-yl]amino}pyridin-3-yl}acrylamide]",,,,IC50 ([1]; 72 hours): 5.64 nM; IC50 ([2]; 72 hours): 2.15 nM; IC50 ([3]; 72 hours): 140 nM
"C=CC(=O)Nc1cc(Nc2ncc(Cl)c(-c3cn(C)c4cc(F)c(F)cc34)n2)c(OC(C)C)nc1N(C)CCN(C)C [Example 8 compound, N-{2-{[2-(dimethylamino)ethyl](methyl)amino}-6-isopropyloxy-5-{5-chloro-[4-(1-methyl-5,6-difluoro-1H-indol-3-yl)pyrimidin-2-yl]amino}pyridin-3-yl}acrylamide]",8.4 nM,5.98 nM,375 nM,
"C=CC(=O)Nc1cc(Nc2nccc(-c3cn(C)c4ccc(F)cc34)n2)c(OCC(F)(F)F)nc1N(C)CCN(C)C [Example 15 compound, N-{2-{[2-(dimethylamino)ethyl](methyl)amino}-6-(2,2,2-trifluoroethoxyl)-5-{[4-(1-methyl-5-fluoro-1H-indol-3-yl)pyrimidin-2-yl]amino}pyridin-3-yl}acrylamide]",6.28 nM,0.69 nM,337 nM,
"C=CC(=O)Nc1cc(Nc2ncc(F)c(-c3cn(C)c4cc(F)c(F)cc34)n2)c(OC(C)C)nc1N(C)CCN(C)C [Example 12 compound, N-{2-{[2-(dimethylamino)ethyl](methyl)amino}-6-isopropyloxy-5-{5-fluoro-[4-(1-methyl-5,6-difluoro-1H-indol-3-yl)pyrimidin-2-yl]amino}pyridin-3-yl}acrylamide]",9.01 nM,0.96 nM,339 nM,
"C=CC(=O)Nc1cc(Nc2ncc(F)c(-c3cn(C)c4ccccc34)n2)c(OC(C)C)nc1N(C)CCN(C)C [Example 11 compound, N-{2-{[2-(dimethylamino)ethyl](methyl)amino}-6-isopropyloxy-5-{5-fluoro-[4-(1-methyl-1H-indol-3-yl)pyrimidin-2-yl]amino}pyridin-3-yl}acrylamide]",7.22 nM,2.23 nM,210 nM,
"C=CC(=O)Nc1cc(Nc2nccc(-c3cn(C)c4ccccc34)n2)c(OC)cc1N(C)CCN(C)C [AZD9291, reference compound]",,,,"IC50 ([2]; Homo sapiens, 72 hours): 3.8 nM; IC50 ([3]; Homo sapiens, A-431, 72 hours): 70.4 nM"

# More lines, main results first:
"IC50 ([1]; Homo sapiens, NCI-H1975, 72 h)","IC50 ([2]; Homo sapiens, HCC827, 72 h)","IC50 ([3]; Homo sapiens, A-431, 72 h)",SMILES,further results
2.28 nM,1.34 nM,224 nM,"C=CC(=O)Nc1cc(Nc2nccc(-c3cn(C)c4ccccc34)n2)c(OCC(F)(F)F)nc1N(C)CCN(C)C [Example 3 compound, N-{2-{[2-(dimethylamino)ethyl](methyl)amino}-6-(2,2,2-trifluoroethoxyl)-5-{[4-(1-methyl-1H-indol-3-yl)pyrimidin-2-yl]amino}pyridin-3-yl}acrylamide]",
5.2 nM,2.36 nM,338 nM,"C=CC(=O)Nc1cc(Nc2nccc(-c3cn(C)c4cc(F)c(F)cc34)n2)c(OC(C)C)nc1N(C)CCN(C)C [Example 6 compound, N-{2-{[2-(dimethylamino)ethyl](methyl)amino}-6-isopropyloxy-5-{[4-(1-methyl-5,6-difluoro-1H-indol-3-yl)pyrimidin-2-yl]amino}pyridin-3-yl}acrylamide]",
5.43 nM,1.45 nM,273 nM,"C=CC(=O)Nc1cc(Nc2ncc(Cl)c(-c3cn(C)c4ccccc34)n2)c(OC(C)C)nc1N(C)CCN(C)C [Example 16 compound, N-{2-{[2-(dimethylamino)ethyl](methyl)amino}-6-isopropyloxy-5-{5-chloro-[4-(1-methyl-1H-indol-3-yl)pyrimidin-2-yl]amino}pyridin-3-yl}acrylamide methanesulfonate]",
5.17 nM,0.77 nM,242 nM,"C=CC(=O)Nc1cc(Nc2ncc(F)c(-c3cn(C)c4ccccc34)n2)c(OCC(F)(F)F)nc1N(C)CCN(C)C [Example 14 compound, N-{2-{[2-(dimethylamino)ethyl](methyl)amino}-6-(2,2,2-trifluoroethoxyl)-5-{5-fluoro-[4-(1-methyl-1H-indol-3-yl)pyrimidin-2-yl]amino}pyridin-3-yl}acrylamide]",
5.33 nM,2.62 nM,209 nM,"C=CC(=O)Nc1cc(Nc2nccc(-c3cn(C)c4cc(F)ccc34)n2)c(OC(C)C)nc1N(C)CCN(C)C [Example 13 compound, N-{2-{[2-(dimethylamino)ethyl](methyl)amino}-6-isopropyloxy-5-{[4-(1-methyl-6-fluoro-1H-indol-3-yl)pyrimidin-2-yl]amino}pyridin-3-yl}acrylamide]",
5.32 nM,2.62 nM,209 nM,"C=CC(=O)Nc1cc(Nc2ncc(F)c(-c3cn(C)c4ccc(F)cc34)n2)c(OC(C)C)nc1N(C)CCN(C)C [Example 10 compound, N-{2-{[2-(dimethylamino)ethyl](methyl)amino}-6-isopropyloxy-5-{5-fluoro-[4-(1-methyl-5-fluoro-1H-indol-3-yl)pyrimidin-2-yl]amino}pyridin-3-yl}acrylamide]",
5.54 nM,4.22 nM,196 nM,"C=CC(=O)Nc1cc(Nc2nccc(-c3cn(C)c4ccccc34)n2)c(OC(C)C)nc1N(C)CCN(C)C [Example 2 compound, N-{2-{[2-(dimethylamino)ethyl](methyl)amino}-6-isopropyloxy-5-{[4-(1-methyl-1H-indol-3-yl)pyrimidin-2-yl]amino}pyridin-3-yl}acrylamide]",
6.15 nM,1.92 nM,164 nM,"C=CC(=O)Nc1cc(Nc2ncc(Cl)c(-c3cn(C)c4ccccc34)n2)c(OCC(F)(F)F)nc1N(C)CCN(C)C [Example 4 compound, N-{2-{[2-(dimethylamino)ethyl](methyl)amino}-6-(2,2,2-trifluoroethoxyl)-5-{5-chloro-[4-(1-methyl-1H-indol-3-yl)pyrimidin-2-yl]amino}pyridin-3-yl}acrylamide]",
4.83 nM,2.58 nM,181 nM,"C=CC(=O)Nc1cc(Nc2nccc(-c3cn(C)c4ccc(F)cc34)n2)c(OC(C)C)nc1N(C)CCN(C)C [Example 5 compound, N-{2-{[2-(dimethylamino)ethyl](methyl)amino}-6-isopropyloxy-5-{[4-(1-methyl-5-fluoro-1H-indol-3-yl)pyrimidin-2-yl]amino}pyridin-3-yl}acrylamide]",
